In general, IC50 refers to the midpoint of a concentration-inhibition curve. Broadly, the LD50 is the dose at which mortality reaches 50%.

The values below come from ChEMBL document CHEMBL1135104, “A novel type of nonsteroidal estrone sulfatase inhibitors” (Bioorg Med Chem Lett, 2002).

One series has as its target T1, Steryl-sulfatase (Homo sapiens, UniProt P08842).
T1 sequence (P08842 whole entry): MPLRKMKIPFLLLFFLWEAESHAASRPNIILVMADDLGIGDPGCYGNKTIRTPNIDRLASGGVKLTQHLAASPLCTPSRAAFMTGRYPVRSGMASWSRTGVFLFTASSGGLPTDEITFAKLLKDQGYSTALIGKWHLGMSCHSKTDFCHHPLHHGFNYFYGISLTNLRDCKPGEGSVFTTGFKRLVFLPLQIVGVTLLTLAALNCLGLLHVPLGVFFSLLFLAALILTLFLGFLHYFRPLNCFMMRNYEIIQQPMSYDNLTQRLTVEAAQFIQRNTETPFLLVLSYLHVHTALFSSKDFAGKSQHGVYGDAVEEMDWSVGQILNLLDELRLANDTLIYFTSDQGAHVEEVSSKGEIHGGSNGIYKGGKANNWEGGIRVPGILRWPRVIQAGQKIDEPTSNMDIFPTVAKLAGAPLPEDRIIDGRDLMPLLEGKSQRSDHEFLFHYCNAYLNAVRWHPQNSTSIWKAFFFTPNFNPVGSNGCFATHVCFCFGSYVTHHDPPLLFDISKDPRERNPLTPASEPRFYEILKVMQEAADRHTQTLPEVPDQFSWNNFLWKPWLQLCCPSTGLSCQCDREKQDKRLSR
Description: Inhibitory activity againist Estrone sulfatase from MCF-7 cells ([…]). It is filed as cell-based, MCF7.

A short description of series [1]: Acute toxicity in the hens fertile egg screening test (HEST). Conditions: chicken. Further details: species or system Gallus gallus.

The structures appear in SMILES notation.

On Steryl-sulfatase, `COc1c2c(c(O)c3c1C(=O)c1c(cc(O)c(C)c1O)C3=O)-c1c(cc(/C=N/NC(=S)NC3CCCCC3)c(C(=O)O)c1O)CC2` [MHL CYCLOHEXYLTHIOSEMICARBAZONE] had a concentration for half-maximal inhibition (IC50) of 0.46 µM. The LD50 in series [1] is > 50 mg/kg. The compound `CCCC/N=C(\S)N/N=C/c1cc2c(c(O)c1C(=O)O)-c1c(O)c3c(c(OC)c1CC2)C(=O)c1c(cc(O)c(C)c1O)C3=O` came in with an IC50 against Steryl-sulfatase of 6 µM. Same read-out and setting: with `COc1c2c(c(O)c3c1C(=O)c1c(cc(O)c(C)c1O)C3=O)-c1c(cc(/C=N/NC(=O)Nc3ccccc3)c(C(=O)O)c1O)CC2` the figure was > 100 µM; with `COc1c2c(c(O)c3c1C(=O)c1c(cc(O)c(C)c1O)C3=O)-c1c(cc(/C=N/N=C(\S)NCC(C)C)c(C(=O)O)c1O)CC2`, 11 µM; with `COc1c2c(c(O)c3c1C(=O)c1c(cc(O)c(C)c1O)C3=O)-c1c(cc(/C=N/N=C(\S)NC3CCCCCC3)c(C(=O)O)c1O)CC2`, 1.8 µM. Consider `COc1c2c(c(O)c3c1C(=O)c1c(cc(O)c(C)c1O)C3=O)-c1c(cc(/C=N/N=C(\S)NN3CCCCC3)c(C(=O)O)c1O)CC2`, for which it took 6 µM to reach half-maximal inhibition against Steryl-sulfatase (IC50).

As to `COc1c2c(c(O)c3c1C(=O)c1c(cc(O)c(C)c1O)C3=O)-c1c(cc(/C=N/N=C(\S)NC3CCC(C)CC3)c(C(=O)O)c1O)CC2` (centres undefined), the IC50 on Steryl-sulfatase was 4 µM. Regarding `Cc1cc(=O)oc2cc(OS(N)(=O)=O)ccc12`, on Steryl-sulfatase, 2.6 µM corresponded to half-maximal inhibition (IC50). On the same count and under the same terms, with `CCCCC/N=C(\S)N/N=C/c1cc2c(c(O)c1C(=O)O)-c1c(O)c3c(c(OC)c1CC2)C(=O)c1c(cc(O)c(C)c1O)C3=O` the figure was 13 µM; with `COc1c2c(c(O)c3c1C(=O)c1c(cc(O)c(C)c1O)C3=O)-c1c(cc(/C=N/N=C(\S)Oc3ccccc3)c(C(=O)O)c1O)CC2`, > 100 µM. At Steryl-sulfatase, `CCCCCC/N=C(\S)N/N=C/c1cc2c(c(O)c1C(=O)O)-c1c(O)c3c(c(OC)c1CC2)C(=O)c1c(cc(O)c(C)c1O)C3=O` registered an IC50 of 8 µM. On Steryl-sulfatase, `CCCCCCCCC/N=C(\S)N/N=C/c1cc2c(c(O)c1C(=O)O)-c1c(O)c3c(c(OC)c1CC2)C(=O)c1c(cc(O)c(C)c1O)C3=O` gave a half-inhibitory concentration (IC50) of 19 µM. In turn, `CCCCCCCCCCCC/N=C(\S)N/N=C/c1cc2c(c(O)c1C(=O)O)-c1c(O)c3c(c(OC)c1CC2)C(=O)c1c(cc(O)c(C)c1O)C3=O` registered a 50% inhibitory concentration (IC50) on Steryl-sulfatase of 50 µM. Regarding `COc1c2c(c(O)c3c1C(=O)c1c(cc(O)c(C)c1O)C3=O)-c1c(cc(/C=N/NC(=O)NC3CCCCC3)c(C(=O)O)c1O)CC2`, the half-inhibitory concentration (IC50) at Steryl-sulfatase is 7 µM. Regarding `COc1c2c(c(O)c3c1C(=O)c1c(cc(O)c(C)c1O)C3=O)-c1c(cc(/C=N/N=C(\S)Nc3ccc(Cl)cc3)c(C(=O)O)c1O)CC2`, at Steryl-sulfatase, the IC50 was > 100 µM. Same read-out and setting: with `COc1c2c(c(O)c3c1C(=O)c1c(cc(O)c(C)c1O)C3=O)-c1c(cc3c(c1O)C(=O)OC3O)CC2` (centres undefined) the figure was 41 µM; with `COc1c2c(c(O)c3c1C(=O)c1c(cc(O)c(C)c1O)C3=O)-c1c(cc(/C=N/NC(=O)Oc3ccccc3)c(C(=O)O)c1O)CC2`, > 100 µM; with `CN/C(S)=N/N=C/c1cc2c(c(O)c1C(=O)O)-c1c(O)c3c(c(OC)c1CC2)C(=O)c1c(cc(O)c(C)c1O)C3=O`, 29 µM. On Steryl-sulfatase, `COc1c2c(c(O)c3c1C(=O)c1c(cc(O)c(C)c1O)C3=O)-c1c(cc(/C=N/N=C(\S)N3CCCCC3)c(C(=O)O)c1O)CC2` gave an IC50 of 8 µM.

Regarding `COc1c2c(c(O)c3c1C(=O)c1c(cc(O)c(C)c1O)C3=O)-c1c(cc(/C=N/N=C(/N)S)c(C(=O)O)c1O)CC2`, the IC50 at Steryl-sulfatase was > 100 µM. On the same count and under the same terms, with `COc1c2c(c(O)c3c1C(=O)c1c(cc(O)c(C)c1O)C3=O)-c1c(cc(/C=N/N=C(\S)Nc3ccccc3)c(C(=O)O)c1O)CC2` the figure was 4.8 µM.

With `COc1c2c(c(O)c3c1C(=O)c1c(cc(O)c(C)c1O)C3=O)-c1c(cc(/C=N/N=C(\S)NC3CCCC3)c(C(=O)O)c1O)CC2`, the IC50 at Steryl-sulfatase is 3.2 µM. Same read-out and setting: with `COc1ccc(N/C(S)=N/N=C/c2cc3c(c(O)c2C(=O)O)-c2c(O)c4c(c(OC)c2CC3)C(=O)c2c(cc(O)c(C)c2O)C4=O)cc1` the figure was 23 µM; with `CCC/N=C(\S)N/N=C/c1cc2c(c(O)c1C(=O)O)-c1c(O)c3c(c(OC)c1CC2)C(=O)c1c(cc(O)c(C)c1O)C3=O`, 20 µM; with `CCCCCCC/N=C(\S)N/N=C/c1cc2c(c(O)c1C(=O)O)-c1c(O)c3c(c(OC)c1CC2)C(=O)c1c(cc(O)c(C)c1O)C3=O`, 9 µM. `CC/N=C(\S)N/N=C/c1cc2c(c(O)c1C(=O)O)-c1c(O)c3c(c(OC)c1CC2)C(=O)c1c(cc(O)c(C)c1O)C3=O` showed a 50% inhibitory concentration (IC50) against Steryl-sulfatase of 16 µM. The same measure, in the same setting: with `COc1c2c(c(O)c3c1C(=O)c1c(cc(O)c(C)c1O)C3=O)-c1c(cc(/C=N/N=C(\S)NC(C)(C)C)c(C(=O)O)c1O)CC2` the figure was 25 µM. Still for that read-out and setting: with `COc1c2c(c(O)c3c1C(=O)c1c(cc(O)c(C)c1O)C3=O)-c1c(cc(/C=N/N=C(\S)Nc3ccc(C)cc3)c(C(=O)O)c1O)CC2` the figure was 12 µM; with `CCC(CC)/N=C(\S)N/N=C/c1cc2c(c(O)c1C(=O)O)-c1c(O)c3c(c(OC)c1CC2)C(=O)c1c(cc(O)c(C)c1O)C3=O`, 18 µM. On the same count and under the same terms, with `COc1c2c(c(O)c3c1C(=O)c1c(cc(O)c(C)c1O)C3=O)-c1c(cc(/C=N/N=C(\S)NC3CCCCCCC3)c(C(=O)O)c1O)CC2` the figure was 15 µM. For the compound `COc1c2c(c(O)c3c1C(=O)c1c(cc(O)c(C)c1O)C3=O)-c1c(cc(/C=N/N=C(\S)NC(C)C)c(C(=O)O)c1O)CC2`, at Steryl-sulfatase, the IC50 is 24 µM.

As to `COc1c2c(c(O)c3c1C(=O)c1c(cc(O)c(C)c1O)C3=O)-c1c(cc(/C=N/N=C(\S)NC3CC3)c(C(=O)O)c1O)CC2`, it took 22 µM to reach half-maximal inhibition against Steryl-sulfatase (IC50). On the same count and under the same terms, with `COc1c2c(c(O)c3c1C(=O)c1c(cc(O)c(C)c1O)C3=O)-c1c(cc(/C=N/N=C(\S)N(C)C3CCCCC3)c(C(=O)O)c1O)CC2` the figure was 1.4 µM.
